Results taken from a melting point compilation (Tetko et al.; mined from patent text by program, amines drawn as free bases though some values may be those of a salt).

| melting point [°C] | Structure (SMILES) |
| --- | --- |
| 176 to 177 | O=C(OCc1ccccc1)N1CCC(O)(Cn2nc(-c3c(-c4ccccc4)nn4ccccc34)ccc2=O)CC1 |
| 88 to 90 | Cc1ccc(S(=O)(=O)C(CCCCCOc2ccc(Cl)cc2)C(=O)O)cc1 (configuration not stated) |
| 166 to 168 | O=C1C2=NCCCN2c2ccc(Br)cc21 |
| 234 to 236 | NS(=O)(=O)c1ccc([C@H]2[C@H](C(=O)Nc3ccc(C(F)(F)F)cc3)C23CCCC3)cc1 (relative stereo) |
| 118 to 122 | O=C(O)c1ncccc1CCc1cccc(F)c1 |
| 77 to 78 | COC(=O)CCc1ccc(C(=O)Cc2ccccc2)cc1 |
| 253 to 254 | O=C1Nc2ccncc2Oc2ccccc21 |
| 90 to 92 | O=C(c1cccs1)C(O)c1ccc(F)cc1 (configuration not stated) |
| 199 to 200 | COc1cc2c(cc1O)CCN(C(=O)c1ccc(OC)c(OC)c1)C2=O |
| 143 to 145 | C#CCOc1ccccc1S(N)(=O)=O |
| 56 to 57 | COc1cc2c(c(C(C)C)c1OC)CC(C)C=C2 (configuration not stated) |
| 122 to 123 | Cc1cc2c(cc1N(Cc1ccccc1)Cc1ccccc1)OC(=O)C2C (configuration not stated) |
| 202 to 204 | O=C(NC(=O)c1ccc2ncccc2c1)NC1CCN(Cc2ccc3ncccc3c2)CC1 |
| 296 to 297 | C[C@H](NC(=O)c1c[nH]c2ncc(-c3cnn(C)c3)nc12)C(C)(C)C |
| 267 to 269 | Cc1ccc(NC(=O)NCc2ccc3c(c2)CN(C2CCC(=O)NC2=O)C3=O)cc1 (configuration not stated) |
| 193 to 194 | Cc1ccc(N2CC(=O)N(C)C(=O)N2)cc1 |
| 76 to 77 | CN(C)CCC(O)c1ccc(Cl)s1 (configuration not stated) |
| 123 to 126 | O=C1CC2c3c(Br)cccc3CCC23OCC(c2ccccc2)N13 (configuration not stated) |
| 266 to 269 | CC(C)NC1=NS(=O)(=O)c2ccc(F)cc2N1 |
| 204 | CCCN(C)CC(C)N1c2ccccc2Sc2ccc(C(N)=S)cc21 (racemic) |
| 83 to 84 | Cc1cc(C)c2c(-c3ccc(C(C)C)cc3)csc2c1 |
| 154 | CCOC(=O)C(=NOC(CC)C(=O)O)c1csc(NC(c2ccccc2)(c2ccccc2)c2ccccc2)n1 (configuration not stated) |

| melting point [°C] | Structure (SMILES) |
| --- | --- |
| 230 | CC1=CC(=O)N(c2cc(NS(=O)(=O)c3cccc4c(N(C)C)cccc34)cc(N3C(=O)C=C(C)C3=O)c2)C1=O |
| 147 to 149 | Clc1ccc2nc3c(nc2c1)N1CCCCC1CO3 (configuration not stated) |
| 80 to 83 | C=CCNC(=O)n1nc(O)cc1C |
| 115 to 116 | C=CCO/N=C(\C(=O)OC)c1csc(NC(c2ccccc2)(c2ccccc2)c2ccccc2)n1 |
| 184 to 185 | CCC(=O)n1nc(-c2cc(C(C)(C)C)c(O)c(C(C)(C)C)c2)c2cccnc21 |
| 252 to 253 | CC1(C)C(=O)Nc2ccc(C#N)cc2N(C2CC2)C1=O |
| 229 to 231 | O=C(O)C[C@H]1C[C@H](C(=O)O)Nc2cc(Cl)cc(Cl)c21 (relative stereo) |
| > 300 | Cn1c(=O)c2c(N)nc(N)nc2n(C)c1=O |
| 160 to 163 | CCC1(CC)C(=O)N(C(C)(C)C)CC(C)(C)N1OC(=O)Nc1ccccc1 |
| 113 to 114 | C=CCNC(=NCCSCc1[nH]cnc1C)NC#N |
| 88 | CCCCCCCCCCOc1ccc(C(=O)NNC(=O)C(F)(F)C(F)(F)C(F)(F)F)cc1 |
| 180 to 181 | COc1cc2cnnc(N3CCC(=O)CC3)c2cc1OC |
| 75 to 76 | CC(Oc1ccc(-c2cccc(NC(N)=O)c2)cc1)C(O)CCc1cccnc1 (configuration not stated) |
| 100 to 102 | CCOC(=O)NCCc1cccc(-c2ccnc3c(Cl)cnn23)c1 |
| 152 to 154 | Cc1cccc(COc2cccc(OCc3coc(-c4cccc(F)c4)n3)c2)c1C(=O)O |
| 67 to 69 | CN(C)CCCOc1ccccc1CNc1ccccc1 |
| 166 to 168 | CC1=CC(OC(=O)c2ccc([N+](=O)[O-])cc2)C2OC1(OCCO)CC2(C)C (configuration not stated) |
| 116 to 119 | Cc1nccn1C(=O)c1c(Cl)cccc1Cl |
| 102 | COC1(C)CCc2cc(OC(=O)c3ccccc3)c(C)c(C)c2O1 (configuration not stated) |
| 90 to 92 | COc1ccc(Cn2nnnc2C(O)c2ccccc2C)cc1 (racemic) |
| 109 | CCOC(=O)C1=C(C(=O)OCC)C(c2ccccc2[N+](=O)[O-])C(C(=O)OCC)=C(C(=O)OCC)N1 |
| 200 | COc1cc(F)c(-c2cncc(OC3SCC(O)C(O)C3O)c2)c(F)c1 (configuration not stated) |

| melting point [°C] | Structure (SMILES) |
| --- | --- |
| 204 | Cc1[nH]c(=S)n(Nc2cccc(Cl)c2)c1-c1cccc(Cl)c1 |
| 90 to 93 | O=C1c2ccccc2C(=O)N1CCCOc1cccc(CN2CCOCC2)c1 |
| 280 to 283 | Nc1ncnc2c1c(-c1cccc(O)c1)nn2Cc1oc2ccccc2c(=O)c1-c1cccc(F)c1 |
| 140 to 142 | COc1ccc(-c2ccccc2)c(NC(=N)N2CCOCC2)c1 |
| 198 to 199 | CCOCc1nc2c(N)nc3cc(Br)ccc3c2n1CC1CCN(C(=O)N2CCOCC2)CC1 |
| > 300 | Cc1c2ccccc2cc2[nH]c(S)nc12 |
| 104 to 105 | CCCOc1c(Cl)cc(Cl)c2c(=O)c3ccccc3sc12 |
| 165 to 170 | COc1ccc(-c2nc3n(c2-c2ccncc2)CCS3=O)cc1 (configuration not stated) |
| 125 to 126 | O=[N+]([O-])c1ccccc1OCCN1CCN(c2cc(Cl)nnc2Cl)CC1 |
| 168 to 170 | Nc1nc(NCc2ccc(OCc3ccccc3)cc2)nc2nc(-c3ccco3)nn12 |
| 90 to 91 | OCC1CCc2cc3ccccc3n2CC1 (configuration not stated) |
| 169 to 170 | C=C(CN(C)C)C(O)c1ncc2c(c1O)COC2c1ccc(OC)cc1 (configuration not stated) |
| 155 to 157 | O=C(NS(=O)(=O)c1ccc(O)cc1)c1ccc(Cl)cc1Cl |
| 249 to 250 | O=C1Nc2ccc(F)cc2Nc2sc3ccccc3c21 |
| 200 to 204 | Cc1c(-c2ccccc2)oc2c(C(=O)NCCCN3CCN(c4ccc(Cl)cc4)CC3)cccc2c1=O |
| 165 to 166 | CC1(c2ccccc2)OC(C=Cc2ccncc2)=CC1=O (configuration not stated) |
| 119 to 120 | COc1cc(C=C(C=O)C(C=O)=Cc2ccc(OC(C)C)c(OC)c2)ccc1OC(C)C |
| 80 to 81 | CNCC(O)c1ccc(CO)cc1 (configuration not stated) |
| 90 to 94 | CCCc1c(O[C@H]2CCC[C@H](Oc3ccc(C(=O)CCC(=O)O)cc3)C2)ccc(C(C)=O)c1O (relative stereo) |
| 71 to 75 | COC(=O)C(Sc1ccc(Cl)cc1)c1ccc(Oc2ccc(Cl)cc2)cc1 (configuration not stated) |
| 282 | COC(=O)CCCC(=O)Nc1ccc(C(=O)NN=C2C(=O)Nc3ccc(I)cc32)cc1 |
| 214 to 215 | CN(Cc1ccccc1)C(Cc1ccccc1)C(=O)O (configuration not stated) |

| Structure (SMILES) | melting point [°C] |
| --- | --- |
| Cc1c(Sc2ccccc2)c2cccc3c2n1C(CN1CCOCC1)CO3 (single isomer, unassigned; (+)) | 126 to 128 |
| C[C@H](Cc1ccc2c(c1)cc(C(=O)O)n2Cc1ccccc1)NC[C@H](O)c1cccc(Cl)c1 | 128 to 130 |
| CCc1cc2c3c(ccc2[nH]1)OCC(CN1CC=C(c2c[nH]c4ccc(F)cc24)CC1)O3 (configuration not stated) | 81 to 82 |
| Nc1c(Cl)cccc1C(=O)c1ccccc1F | 86 to 87.5 |
| Cc1ccsc1C(Cc1cc(Br)ccc1N)N(C)C (configuration not stated) | 96 to 98 |
| CN(c1nnc(C(F)(F)F)s1)C1CCN(Cc2ccc(F)cc2)CC1 | 85.8 |
